Experimental data taken from ChEMBL document CHEMBL1201862, “PubChem BioAssay data set” (2004).
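Test compounds were applied to cells in 96-well plates for 48 hours at 5 doses. GI50: concentration for 50% inhibition of growth.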 Activity calls are given as the source filed them. No stated cut-off is given here; in the data, active = GI50 up to about 1.1 µM and inactive = higher.

Tests used:
Assay in all cases: DTP human tumour cell line panel, 48 h
MDA-N = test system: MDA-N
EKVX = test system: EKVX
HCT-15 = test system: HCT-15
M14 = test system: M14
UACC-257 = test system: UACC-257
RXF 393 = test system: RXF 393
MCF7 = test system: MCF7
CAKI-1 = test system: CAKI-1
MDA-MB-231 = test system: MDA-MB-231
OVCAR-5 = test system: OVCAR-5
T47D = test system: T47D
HOP-62 = test system: HOP-62
K562 = test system: K562
HCT-116 = test system: HCT-116
PC-3 = test system: PC-3
CCRF-CEM = test system: CCRF-CEM
786-0 = test system: 786-0
NCI/ADR-RES = test system: NCI/ADR-RES
LOX IMVI = test system: LOX IMVI
SW-620 = test system: SW-620

| SMILES | GI50 (MDA-N) | GI50 (EKVX) | GI50 (HCT-15) [µM] | GI50 (M14) | GI50 (UACC-257) | GI50 (RXF 393) | GI50 (MCF7) | GI50 (CAKI-1) | GI50 (MDA-MB-231) | GI50 (OVCAR-5) | GI50 (T47D) | GI50 (HOP-62) | GI50 (K562) | GI50 (HCT-116) | GI50 (PC-3) | GI50 (CCRF-CEM) | GI50 (786-0) | GI50 (NCI/ADR-RES) | GI50 (LOX IMVI) | GI50 (SW-620) |
| --- | --- | --- | --- | --- | --- | --- | --- | --- | --- | --- | --- | --- | --- | --- | --- | --- | --- | --- | --- | --- |
| CCOC(=O)c1cc2cc([N+](=O)[O-])ccc2oc1=O | > 100 µM (inactive) | > 100 µM (inactive) | > 100 | > 100 µM (inactive) | > 100 µM (inactive) | > 100 µM (inactive) | 62.1 µM (inactive) | > 100 µM (inactive) | > 100 µM (inactive) | > 100 µM (inactive) | > 100 µM (inactive) | > 100 µM (inactive) | 41.2 µM (inactive) | 93.3 µM (inactive) | > 100 µM (inactive) | > 100 µM (inactive) | > 100 µM (inactive) | > 100 µM (inactive) | > 100 µM (inactive) | > 100 µM (inactive) |
| CCOC(=O)c1nc2cc(C(F)(F)F)ccc2nc1Nc1ccc(OC)c(OC)c1 | > 100 µM (inactive) | > 100 µM (inactive) | > 100 | > 100 µM (inactive) | > 100 µM (inactive) | > 100 µM (inactive) | > 100 µM (inactive) | > 100 µM (inactive) | > 100 µM (inactive) | > 100 µM (inactive) | 71.3 µM (inactive) | 32 µM (inactive) | > 100 µM (inactive) | > 100 µM (inactive) | > 100 µM (inactive) | > 100 µM (inactive) | > 100 µM (inactive) | > 100 µM (inactive) | > 100 µM (inactive) | > 100 µM (inactive) |
| CCN(CC)c1ccc2cc(-c3nc(O)c4ccccc4n3)c(=N)oc2c1 | > 100 µM (inactive) | > 100 µM (inactive) | > 100 | > 100 µM (inactive) | > 100 µM (inactive) | > 100 µM (inactive) | > 100 µM (inactive) | > 100 µM (inactive) | > 100 µM (inactive) | > 100 µM (inactive) | > 100 µM (inactive) | > 100 µM (inactive) | > 100 µM (inactive) | > 100 µM (inactive) | > 100 µM (inactive) | > 100 µM (inactive) | > 100 µM (inactive) | > 100 µM (inactive) | > 100 µM (inactive) | > 100 µM (inactive) |
| N#CSc1ccc(S(N)(=O)=O)cc1 | 33.2 µM (inactive) | > 100 µM (inactive) | 40.4 | 21.6 µM (inactive) | > 100 µM (inactive) | 26.1 µM (inactive) | 35.6 µM (inactive) | 56.5 µM (inactive) | 44.6 µM (inactive) | 59.8 µM (inactive) | 31.8 µM (inactive) | > 100 µM (inactive) | 35.2 µM (inactive) | 44.5 µM (inactive) | 48 µM (inactive) | 8.07 µM (inactive) | 26.1 µM (inactive) | > 100 µM (inactive) | 31.3 µM (inactive) | 23.9 µM (inactive) |
| O=C1Nc2ccc(Br)cc2/C1=N/c1ccc2c(c1)OCO2 | 15.7 µM (inactive) | 25.8 µM (inactive) | 19.8 | 20.5 µM (inactive) | 18.3 µM (inactive) | 20.3 µM (inactive) | 16.7 µM (inactive) | 20.3 µM (inactive) | 19 µM (inactive) | 22.8 µM (inactive) | 35.9 µM (inactive) | 20.2 µM (inactive) | 24.4 µM (inactive) | 17.4 µM (inactive) | 16.3 µM (inactive) | 14.7 µM (inactive) | 21.6 µM (inactive) | 27.5 µM (inactive) | 23.1 µM (inactive) | 22.4 µM (inactive) |
| N#C[BH2-][n+]1ccc(C(=O)NNCC(F)(F)F)cc1 | > 100 µM (inactive) | > 100 µM (inactive) | > 100 | > 100 µM (inactive) | > 100 µM (inactive) | > 100 µM (inactive) | > 100 µM (inactive) | > 100 µM (inactive) | > 100 µM (inactive) | > 100 µM (inactive) | > 100 µM (inactive) | > 100 µM (inactive) | > 100 µM (inactive) | > 100 µM (inactive) | > 100 µM (inactive) | > 100 µM (inactive) | > 100 µM (inactive) | > 100 µM (inactive) | > 100 µM (inactive) | > 100 µM (inactive) |
| C[C@]12CC[C@H]3[C@@H](CC=C4C[C@@H](N5CCCC5)CC[C@@]43C)[C@@H]1C[C@H](N1CCOCC1)[C@@H]2O | > 100 µM (inactive) | > 100 µM (inactive) | > 100 | > 10 µM (inactive) | > 100 µM (inactive) | > 100 µM (inactive) | > 10 µM (inactive) | > 100 µM (inactive) | > 100 µM (inactive) | > 100 µM (inactive) | > 100 µM (inactive) | > 100 µM (inactive) | 22.5 µM (inactive) | > 100 µM (inactive) | > 100 µM (inactive) | > 100 µM (inactive) | > 100 µM (inactive) | > 100 µM (inactive) | > 10 µM (inactive) | > 100 µM (inactive) |
| COC(=O)C(Cc1ccc2c(c1)CCCC2)Cc1cc2c(cc1C(O)OC)CCC2 (stereo not given) | 56.8 µM (inactive) | 39.4 µM (inactive) | 33.7 | 93.3 µM (inactive) | 14.7 µM (inactive) | 24.3 µM (inactive) | 29.4 µM (inactive) | > 100 µM (inactive) | > 100 µM (inactive) | 80.9 µM (inactive) | 29.3 µM (inactive) | > 100 µM (inactive) | 35.1 µM (inactive) | 39.6 µM (inactive) | 19.5 µM (inactive) | 58.9 µM (inactive) | 33.3 µM (inactive) | 32.8 µM (inactive) | 30.4 µM (inactive) | 67.1 µM (inactive) |
| CC(C)(Cc1ccccc1)Cc1cc(O)ccc1O | 16.4 µM (inactive) | 24.9 µM (inactive) | 17.5 | 17.6 µM (inactive) | 13.9 µM (inactive) | 13.6 µM (inactive) | 23.4 µM (inactive) | 20.7 µM (inactive) | 20 µM (inactive) | 30.8 µM (inactive) | 5.9 µM (inactive) | 30.1 µM (inactive) | 12.4 µM (inactive) | 15.8 µM (inactive) | 22.2 µM (inactive) | 4.49 µM (inactive) | 12.7 µM (inactive) | 16.4 µM (inactive) | 13.3 µM (inactive) | 22.6 µM (inactive) |
| CC(=O)OC1COC(n2c(-c3ccc(Cl)cc3)cc(-c3ccccc3)c(C#N)c2=S)C(OC(C)=O)C1OC(C)=O (stereo not given) | 22.1 µM (inactive) | 58.5 µM (inactive) | 23.4 | 17.2 µM (inactive) | 41.6 µM (inactive) | 12.9 µM (inactive) | 8.43 µM (inactive) | 19.7 µM (inactive) | 2.88 µM (inactive) | 32.7 µM (inactive) | 14.1 µM (inactive) | 9.23 µM (inactive) | 12.2 µM (inactive) | 5.52 µM (inactive) | 14.5 µM (inactive) | 31.8 µM (inactive) | 12.5 µM (inactive) | 14.1 µM (inactive) | 3.58 µM (inactive) | 41.1 µM (inactive) |
| O=C(NC1=NC2C=CC([N+](=O)[O-])=CC2S1)C(=O)Nn1c(S)nc2ccccc2c1=O (stereo not given) | > 100 µM (inactive) | 33.7 µM (inactive) | 21.2 | > 100 µM (inactive) | > 100 µM (inactive) | 50.6 µM (inactive) | 97.7 µM (inactive) | 40.4 µM (inactive) | 63.8 µM (inactive) | > 100 µM (inactive) | 80.5 µM (inactive) | > 100 µM (inactive) | 64.1 µM (inactive) | 79.3 µM (inactive) | 40.6 µM (inactive) | 45.9 µM (inactive) | > 100 µM (inactive) | > 100 µM (inactive) | 67.3 µM (inactive) | > 100 µM (inactive) |
| CCCCCC/C=C\CCCCCCCCCC1=C(CN2CCN(C)CC2)C(=O)C=C(OC)C1=O | 8.05 µM (inactive) | 13.6 µM (inactive) | 2.47 | 2.51 µM (inactive) | 13.3 µM (inactive) | 2.29 µM (inactive) | 4.3 µM (inactive) | 2.73 µM (inactive) | 9.53 µM (inactive) | 15.2 µM (inactive) | 2.28 µM (inactive) | 15.6 µM (inactive) | 2.24 µM (inactive) | 2.14 µM (inactive) | 2.37 µM (inactive) | 0.465 µM (active) | 1.67 µM (inactive) | 3.58 µM (inactive) | 3.8 µM (inactive) | 1.59 µM (inactive) |
| C=C1CC(O)C2C(=C)C(=O)OC2C2C(C)C(=O)CC12 (stereo not given) | 6.87 µM (inactive) | 15.4 µM (inactive) | 4.82 | 11.8 µM (inactive) | 12.6 µM (inactive) | 4.73 µM (inactive) | 9.4 µM (inactive) | 4.57 µM (inactive) | 20.4 µM (inactive) | 16.1 µM (inactive) | 16.9 µM (inactive) | 19.8 µM (inactive) | 5.98 µM (inactive) | 10 µM (inactive) | 36.6 µM (inactive) | 4.08 µM (inactive) | > 10 µM (inactive) | 18.4 µM (inactive) | 20 µM (inactive) | 5.12 µM (inactive) |
| CO/C(=N\N=C\c1ccc(C(F)(F)F)cc1)c1ccncc1 | > 10 µM (inactive) | > 10 µM (inactive) | > 10 | > 10 µM (inactive) | > 10 µM (inactive) | > 10 µM (inactive) | > 10 µM (inactive) | > 10 µM (inactive) | > 10 µM (inactive) | > 10 µM (inactive) | > 10 µM (inactive) | > 10 µM (inactive) | > 10 µM (inactive) | > 10 µM (inactive) | > 10 µM (inactive) | > 10 µM (inactive) | > 10 µM (inactive) | > 10 µM (inactive) | > 10 µM (inactive) | > 10 µM (inactive) |
